{"source": "paper PMC6154605", "about": "“Multi-Anti-Parasitic Activity of Arylidene Ketones and Thiazolidene Hydrazines against Trypanosoma cruzi and Leishmania spp” (Molecules : A Journal of Synthetic Chemistry and Natural …, 2017)", "key": {"[1]": {"tested_on": "T. cruzi epimastigotes, Tulahuen 2 strain (genotype TcVI)", "conditions": "cited from earlier work; for SI J774.1/ T. cruzi: ratio IC50 mammalian cell / IC50 parasite (epimastigotes); for IC50: read-out: IC50 ± SD Epimastigotes T. cruzi"}, "[2]": {"tested_on": "J774.1 murine macrophages", "conditions": "J774.1; read-out: IC50 ± SD Murine Macrophages; cited from earlier work"}, "[3]": {"tested_on": "L. infantum promastigotes", "test": "Leishmanicidal activity on promastigotes, resazurin", "format": "cell-based, Leishmania infantum", "conditions": "for IC50: Leishmania infantum, 48 h, read-out: IC50 ± SD Promastigotes L. infantum; for SI NCTC/ L. infantum: ratio IC50 mammalian cell / IC50 parasite (promastigotes)", "text": "(§1) We initially selected compounds previously reported to have anti-T. cruzi activity from our chemical library to evaluate their leishmanicidal activity. […]. To evaluate their activity in Leishmania spp., we performed a phenotypic screening using the promastigote form of L. infantum (MHOM/FR/91/LEM-2259) and L. braziliensis ([…]) (Table 1A for the thiazolidenehydrazine derivate and Table 1B for the arylideneketones family).\n(§2) A culture of L. braziliensis (MHOM/BR/75/M2904) and L. infantum (MHOM/FR/91/LEM2259V) was obtained from the Facultad de Farmacia (Universidad Complutense, Madrid, Spain). The maintenance of the strains, the form of cultivation and the isolation of the shape of the promastigote were performed following the procedures described by Roldos et al.. The promastigotes were grown at 22 °C in Schneider’s Drosophila medium supplemented with 20% FBS. The assay was performed using a modification of a previous method. Promastigotes (2 × 10^6 parasites/well) were cultivated in 96-well plastic plates. Compounds were dissolved in dimethylsulfoxide (DMSO). Different dilutions of the compounds with a final volume up to 200 µL were added. After 48 h at 26 °C, 20 µL of a 2 mM resazurin solution were added, and the oxidation-reduction was quantified at 570 and 600 nm. The solution of resazurin was prepared at 2.5 mM in phosphate buffered solution (PBS), pH 7.4, and filtered through 0.22-µm membranes prior to use. All tests were carried out in triplicate. Resazurin sodium salt was obtained from Sigma-Aldrich (St. Louis, MO, USA) and stored at 4 °C protected from light. The efficacy of each compound was estimated by calculating the IC50 values. Each antiproliferative experiment was done in duplicate, and each concentration was tested in triplicate."}, "[4]": {"tested_on": "L. braziliensis promastigotes", "test": "Leishmanicidal activity on promastigotes, resazurin", "format": "cell-based, Leishmania braziliensis", "conditions": "for IC50: Leishmania braziliensis, 48 h, read-out: IC50 ± SD Promastigotes L. braziliensis; for SI NCTC/ L. braziliensis: ratio IC50 mammalian cell / IC50 parasite (promastigotes)", "text": "as §1, §2"}, "NCTC929 fibroblasts": {"tested_on": "NCTC929 fibroblasts", "test": "Nonspecific cytotoxicity on fibroblasts, resazurin", "format": "cell-based", "conditions": "NCTC-929, 24 h; read-out: IC50 ± SD Fibroblast NCTC929", "procedure": "To establish the selectivity of the compounds against the parasites, nonspecific cytotoxicity against mammalian cells, using J774.1 murine macrophages and fibroblast NCTC929, was studied for the most relevant derivatives. The selectivity indexes were calculated as the ratio between cytotoxicity for mammalian cells and the anti-parasitic activity (Table 2).\nNCTC-Clone 929 were grown in minimal essential medium (Sigma) supplemented with 10% heat-inactivated FBS, penicillin G (100 U/mL) and streptomycin (100 µg/mL). Cell cultures were maintained at 37 °C in a humidified 5% CO2 atmosphere. The procedure for cell viability measurement was evaluated with resazurin by a colorimetric method. The cells were plated in 96 microtiter plates at 3.00 × 10^4 cells/well in 100 µL growth medium. The cells were grown overnight at 37 °C, 5% CO2. Thereafter, the medium was removed, and the compounds were added to 200 µL of medium for 24 h. After incubation, 20 µL of a 2 mM resazurin solution were added to each well. The plates were incubated for 3 h to allow optimal oxidation-reduction. The reduction of resazurin was determined by dual wavelength absorbance measurement at 490 and 595 nm. The background was subtracted. Each concentration was assayed three times. Medium and drug controls were used in each test as blanks."}, "[5]": {"tested_on": "T. cruzi epimastigotes, Tulahuen 2 strain (genotype TcVI)", "test": "In vitro anti-T. cruzi activity, growth inhibition of epimastigotes", "format": "cell-based, Trypanosoma cruzi", "conditions": "for IC50: Trypanosoma cruzi, TULAHUEN; for Trypanocidal activity on T. cruzi in words: molecular stripping, epimastigotes", "procedure": "For the in vitro anti-T. cruzi activity, we used epimastigotes of the Tulahuen 2 strain (genotype TcVI) grown in an axenic milieu (BHI-Tryptose). Cells from a 5–7-day-old culture were inoculated in fresh culture milieu to give an initial concentration of 1.00 × 10^6 cells/mL. The absorbance at 600 nm of the cells in culture was measured every day. At Day 5, the milieu was inoculated with different quantities of the compounds from a stock solution in DMSO (DMSO concentration in the culture milieu never exceeded 0.4%). The control was made in the presence of 0.4% DMSO and in the absence of compounds. Each concentration of compound was evaluated in duplicate. At Day 5, the absorbance of the culture was measured and related to the control. […] Each antiproliferative experiment was done in duplicate, and each concentration was tested in triplicate."}, "[6]": {"conditions": "Tulahuen 2 strain, read-out: IC50 ± SD Epimastigotes T. cruzi"}, "[7]": {"conditions": "Figure 4, molecular stripping of HIT1, read-out: Effect of structural change on trypanocidal activity (emoticon code)"}}, "note": "Where two headings read alike, the source gives them in different places. Marks after values point to notes of the source that are not given here.", "data": [{"smiles": "O=C(/C=C/c1ccco1)/C=C/c1ccco1", "note": "[EA134]", "values": [{"measurement": "SI J774.1/ T. cruzi", "setting": "[1]", "result": "5 ^c"}, {"measurement": "IC50", "setting": "[1]", "result": "24 ± 2", "unit": "µM"}, {"measurement": "IC50", "setting": "[2]", "result": "115 ± 6", "unit": "µM"}, {"measurement": "IC50", "setting": "[3]", "result": "6 ± 2", "unit": "µM"}, {"measurement": "SI NCTC/ L. infantum", "setting": "[3]", "result": 19}, {"measurement": "IC50", "setting": "[4]", "result": "10 ± 6", "unit": "µM"}, {"measurement": "SI NCTC/ L. braziliensis", "setting": "[4]", "result": 11}, {"measurement": "IC50", "setting": "NCTC929 fibroblasts", "result": "0.114 ± 0.002", "unit": "mM"}]}, {"smiles": "O=C(/C=C/C=C/c1ccccc1)/C=C/C=C/c1ccccc1", "note": "[EA139]", "values": [{"measurement": "IC50", "setting": "[5]; [6]", "result": "11 ± 1", "unit": "µM"}, {"measurement": "IC50", "setting": "[3]", "result": "> 25", "unit": "µM"}, {"measurement": "IC50", "setting": "[4]", "result": "> 25", "unit": "µM"}]}, {"smiles": "O=C(/C=C/C=C/c1cccs1)/C=C/C=C/c1cccs1", "note": "[EA141]", "values": [{"measurement": "SI J774.1/ T. cruzi", "setting": "[1]", "result": "1 ^c"}, {"measurement": "IC50", "setting": "[1]", "result": "12.6 ± 1.4", "unit": "µM"}, {"measurement": "IC50", "setting": "[2]", "result": "10 ± 2", "unit": "µM"}, {"measurement": "IC50", "setting": "[3]", "result": "19 ± 5", "unit": "µM"}, {"measurement": "SI NCTC/ L. infantum", "setting": "[3]", "result": 90}, {"measurement": "IC50", "setting": "[4]", "result": "36 ± 3", "unit": "µM"}, {"measurement": "SI NCTC/ L. braziliensis", "setting": "[4]", "result": 47}, {"measurement": "IC50", "setting": "NCTC929 fibroblasts", "result": "1.7 ± 0.04", "unit": "mM"}]}, {"smiles": "O=C1/C(=C/c2ccccc2)CCC/C1=C\\c1ccccc1", "note": "[EA142]", "values": [{"measurement": "IC50", "setting": "[1]", "result": "5.1 ± 0.3", "unit": "µM"}, {"measurement": "IC50", "setting": "[3]", "result": "9.6 ± 0.9", "unit": "µM"}, {"measurement": "IC50", "setting": "[4]", "result": "4.2 ± 0.7", "unit": "µM"}]}, {"smiles": "O=C1/C(=C/C=C/c2ccccc2)CCC/C1=C\\C=C\\c1ccccc1", "note": "[EA143]", "values": [{"measurement": "IC50", "setting": "[5]; [6]", "result": "14 ± 3", "unit": "µM"}, {"measurement": "IC50", "setting": "[3]", "result": "> 25", "unit": "µM"}, {"measurement": "IC50", "setting": "[4]", "result": "> 25", "unit": "µM"}]}, {"smiles": "O=C(/C=C/C=C/C=C/c1cccs1)/C=C/C=C/C=C/c1cccs1", "note": "[EA152]", "values": [{"measurement": "IC50", "setting": "[5]; [6]", "result": "> 25", "unit": "µM"}, {"measurement": "IC50", "setting": "[3]", "result": "30 ± 8", "unit": "µM"}, {"measurement": "IC50", "setting": "[4]", "result": "> 100", "unit": "µM"}]}, {"smiles": "O=C1/C(=C/c2ccco2)CCC/C1=C\\c1ccco1", "note": "[EA154]", "values": [{"measurement": "IC50", "setting": "[5]; [6]", "result": "7 ± 2", "unit": "µM"}, {"measurement": "IC50", "setting": "[3]", "result": "> 25", "unit": "µM"}, {"measurement": "IC50", "setting": "[4]", "result": "> 25", "unit": "µM"}]}, {"smiles": "O=C1/C(=C/C=C/c2cccs2)CCC/C1=C\\C=C\\c1cccs1", "note": "[EA156]", "values": [{"measurement": "SI J774.1/ T. cruzi", "setting": "[1]", "result": "33 ^c"}, {"measurement": "IC50", "setting": "[1]", "result": "0.6 ± 0.2", "unit": "µM"}, {"measurement": "IC50", "setting": "[2]", "result": "20 ± 1", "unit": "µM"}, {"measurement": "IC50", "setting": "[3]", "result": "16 ± 3", "unit": "µM"}, {"measurement": "SI NCTC/ L. infantum", "setting": "[3]", "result": 124}, {"measurement": "IC50", "setting": "[4]", "result": "> 100", "unit": "µM"}, {"measurement": "IC50", "setting": "NCTC929 fibroblasts", "result": "1.98 ± 0.02", "unit": "mM"}]}, {"smiles": "O=C1/C(=C/C=C/c2cccs2)CC/C1=C\\C=C\\c1cccs1", "note": "[EA160]", "values": [{"measurement": "SI J774.1/ T. cruzi", "setting": "[1]", "result": "375 ^c"}, {"measurement": "IC50", "setting": "[1]", "result": "0.04 ± 0.01", "unit": "µM"}, {"measurement": "IC50", "setting": "[2]", "result": "15 ± 1", "unit": "µM"}, {"measurement": "IC50", "setting": "[3]", "result": "11 ± 3", "unit": "µM"}, {"measurement": "SI NCTC/ L. infantum", "setting": "[3]", "result": 446}, {"measurement": "IC50", "setting": "[4]", "result": "> 100", "unit": "µM"}, {"measurement": "IC50", "setting": "NCTC929 fibroblasts", "result": "4.909 ± 0.036", "unit": "mM"}]}, {"smiles": "O=C1/C(=C/C=C/c2ccco2)CC/C1=C\\C=C\\c1ccco1", "note": "[EA161]", "values": [{"measurement": "SI J774.1/ T. cruzi", "setting": "[1]", "result": "4 ^c"}, {"measurement": "IC50", "setting": "[1]", "result": "5.4 ± 1.6", "unit": "µM"}, {"measurement": "IC50", "setting": "[2]", "result": "19 ± 2", "unit": "µM"}, {"measurement": "IC50", "setting": "[3]", "result": "16 ± 4", "unit": "µM"}, {"measurement": "SI NCTC/ L. infantum", "setting": "[3]", "result": 47}, {"measurement": "IC50", "setting": "[4]", "result": "18 ± 4", "unit": "µM"}, {"measurement": "SI NCTC/ L. braziliensis", "setting": "[4]", "result": 42}, {"measurement": "IC50", "setting": "NCTC929 fibroblasts", "result": "0.756 ± 0.017", "unit": "mM"}]}, {"smiles": "Cc1ccc(/C=C/C=N/N2CCN(CC=Cc3ccccc3)CC2)o1", "note": "[GAT0413, (E)-4-cinnamyl-N-((E)-3-(5-methylfuran-2-yl)allylidene)piperazin-1-amine]", "values": [{"measurement": "IC50", "setting": "[5]; [7]", "result": "5 to 25", "unit": "µM"}, {"measurement": "IC50", "setting": "[5]; [6]", "result": "12 ± 2", "unit": "µM"}, {"measurement": "Trypanocidal activity on T. cruzi in words", "setting": "[5]", "result": "the activity was restored"}, {"measurement": "IC50", "setting": "[3]", "result": "> 25", "unit": "µM"}, {"measurement": "IC50", "setting": "[4]", "result": "> 25", "unit": "µM"}]}, {"smiles": "C=CCn1c(C(=O)CNN2CCN(CC=Cc3ccccc3)CC2)cs/c1=N/N=C\\C=C\\c1ccco1", "note": "[GAT0613, 1-((Z)-3-allyl-2-((E)-((E)-3-(furan-2-yl)allylidene)hydrazono)-2,3-dihydrothiazol-4-yl)-2-((4-cinnamylpiperazin-1-yl)amino)ethanone]", "values": [{"measurement": "IC50", "setting": "[5]; [6]", "result": "11 ± 4", "unit": "µM"}, {"measurement": "Trypanocidal activity on T. cruzi in words", "setting": "[5]", "result": "the activity was lost"}, {"measurement": "IC50", "setting": "[3]", "result": "> 25", "unit": "µM"}, {"measurement": "melting point", "result": "150 to 153", "unit": "°C"}, {"measurement": "IC50", "setting": "[4]", "result": 25, "unit": "µM"}]}, {"smiles": "O=C(C=Cc1ccco1)N1CCN(CC=Cc2ccccc2)CC1", "note": "[GAT0804]", "values": [{"measurement": "IC50", "setting": "[5]; [7]", "result": "> 25", "unit": "µM"}]}]}
